Laboratory results reported in US8680159B2, “Bradykinin 1 receptor modulating compounds” (Gruenenthal GmbH, priority 2010, dated 2014).

The compounds below were run against T1, human B1R receptor (CHO K1 cells stably transfected with the human B1R gene) (Homo sapiens, UniProt P46663) (assay: Functional study on the bradykinin receptor 1 (B1R), Ca2+ fluorescence (Fluo-4) FLIPR/Novostar assay, hB1R cells). Conditions: CHO-K1, read-out: % Inhibition (h-B1R) at 10 μM.
T1 construct: expressed in transfected cells; host or cells: CHO K1 cells (Chinese hamster ovary), stably transfected
T1 sequence (P46663 1-353): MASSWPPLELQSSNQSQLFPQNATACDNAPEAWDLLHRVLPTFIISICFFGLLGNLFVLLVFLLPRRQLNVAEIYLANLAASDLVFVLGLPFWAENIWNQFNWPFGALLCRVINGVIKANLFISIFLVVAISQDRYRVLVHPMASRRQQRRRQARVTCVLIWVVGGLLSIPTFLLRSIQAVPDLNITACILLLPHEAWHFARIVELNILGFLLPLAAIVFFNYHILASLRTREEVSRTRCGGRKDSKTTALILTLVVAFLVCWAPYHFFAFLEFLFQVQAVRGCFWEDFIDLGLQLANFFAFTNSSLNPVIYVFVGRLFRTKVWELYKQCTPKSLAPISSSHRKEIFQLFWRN
Format: cell-based
Protocol: The agonistic or antagonistic action of substances can be quantified on the bradykinin receptor 1 (B1R) of the species human and rat using ectopically expressing cell lines (CHO K1 cells) and with the aid of a Ca^2+-sensitive dye (Fluo-4) using a fluorescent imaging plate reader (FLIPR). The indication in % activation is based on the Ca^2+ signal after addition of Lys-Des-Arg^9-bradykinin (0.5 nM) or Des-Arg^9-bradykinin (100 nM). Antagonists lead to suppression of the Ca^2+ influx after the addition of the agonist. % Inhibition compared with the maximum achievable inhibition is indicated.
The agonistic or antagonistic action of substances can be determined on the bradykinin receptor 1 (B1R) of the species human and rat using the following assay. According to this assay, the increase in intracellular Ca^2+ following administration of a B1R agonist is quantified with the aid of a Ca^2+-sensitive dye (Fluo-4 type, Molecular Probes Europe BV, Leiden, Netherlands) using a Fluorescent Imaging Plate Reader (FLIPR, Molecular Devices, Sunnyvale, USA) and/or using a Novostar (BMG Labtech GmbH, Offenburg, Germany).
Chinese hamster ovary cells (CHO K1 cells) which have been stably transfected with the human B1R gene (hB1R cells) or with the B1R gene of the rat (rB1R cells) are used. For functional studies, the cells are plated out on black 96-well plates having a clear base (BD Biosciences, Heidelberg, Germany or Greiner, Frickenhausen, Germany) in a density of 20,000-35,000 cells/well. The cells are left overnight at 37° C. and with 5% CO2 in culture medium (hB1R cells: Nutrient Mixture Ham's F12, Gibco Invitrogen GmbH, Karlsruhe, Germany or DMEM, Sigma-Aldrich, Taufkirchen, Germany; rB1R cells: D-MEM/F12, Gibco Invitrogen GmbH, Karlsruhe, Germany), with 10 vol. % FBS (fetal bovine serum, Gibco Invitrogen GmbH, Karlsruhe, Germany or PAN Biotech GmbH, Aidenbach, Germany). On the following day, the cells are loaded for 60 minutes at 37° C. with 2.13 μM Fluo-4 (Molecular Probes Europe BV, Leiden, Netherlands) in HBSS buffer (Hank's buffered saline solution, Gibco Invitrogen GmbH, Karlsruhe, Germany) […] (Sigma-Aldrich, Taufkirchen, Germany) and 10 mM HEPES (Sigma-Aldrich, Taufkirchen, Germany). The plates are then washed twice with HBSS buffer, and HBSS buffer additionally containing 0.1% BSA (bovine serum albumin; Sigma-Aldrich, Taufkirchen, Germany), 5.6 mM glucose and 0.05% gelatin (Merck KGaA, Darmstadt, Germany) is added to the plates. After incubation for a further 20 minutes at room temperature, the plates are inserted into the FLIPR or Novostar for Ca^2+ measurement. Alternatively, washing is carried out with buffer A (15 mM HEPES, 80 mM NaCl, 5 mM KCl, 1.2 mM CaCl2, 0.7 mM MgSO4, 2 g/l glucose, 2.5 mM probenecid) followed by loading with buffer A with added 2.5 μM Fluo-4 and 0.025% Pluronic F127 (Sigma-Aldrich, Taufkirchen, Germany). The cells are then washed twice with buffer A and incubated for 30 minutes at room temperature with buffer A additionally containing 0.05% BSA and 0.05% gelatin and are then inserted into the FLIPR or Novostar for Ca^2+ measurement. The Ca^2+-dependent fluorescence is measured before and after the addition of substances (λex=488 nm, λem=540 nm). Quantification is carried out by measuring the highest fluorescence intensity (FC, fluorescence counts) over time.
The FLIPR protocol consists of 2 substance additions, which are pipetted in the FLIPR. In the case of measurements using the Novostar, only the second substance addition is pipetted in the device. Both devices measure the fluorescence intensity over time. Test substances (10 μM) are first pipetted onto the cells and the intracellular Ca^2+ increase is compared with the control (hB1R: Lys-Des-Arg^9-bradykinin>=50 nM; rB1R: Des-Arg^9-bradykinin>=1 μM). This gives the % activation, based on the Ca^2+ signal after addition of Lys-Des-Arg^9-bradykinin (>=50 nM) or Des-Arg^9-bradykinin (>=1 μM). […]
`Cc1cc(N2CCC(N(C)C(=O)c3ccc4c(c3)C(N(C)C(=O)CC(C)C)CC4)CC2)cc(C)n1` (stereo not drawn) [CC_H-90, N-[1-(2,6-Dimethyl-pyridin-4-yl)-piperidin-4-yl]-N-methyl-3-[methyl-(3-methyl-butanoyl)-amino]-2,3-dihydro-1H-indene-5-carboxylic acid amide] gave an inhibition at 10 µM of 100%.
`Cc1cc(N2CCC(N(C)C(=O)c3ccc4c(c3)C(N(C)C(=O)c3c(C)cccc3C)CC4)CC2)cc(C)n1` (stereo not drawn) [CC_H-91, 3-[(2,6-Dimethyl-benzoyl)-methyl-amino]-N-[1-(2,6-dimethyl-pyridin-4-yl)-piperidin-4-yl]-N-methyl-2,3-dihydro-1H-indene-5-carboxylic acid amide] gave an inhibition at 10 µM of 99%.
Compound `Cc1cc(N2CCC(N(C)C(=O)c3ccc4c(c3)C(N(C)C(=O)c3cncnc3)CC4)CC2)cc(C)n1` (stereo not drawn) [CC_H-92, N-[6-[[1-(2,6-Dimethyl-pyridin-4-yl)-piperidin-4-yl]-methyl-carbamoyl]-2,3-dihydro-1H-inden-1-yl]-N-methyl-pyrimidine-5-carboxylic acid amide] has an inhibition at 10 µM of 98%.
Compound `CN(C(=O)c1ccc2c(c1)C(NS(=O)(=O)c1c(Cl)cccc1C(F)(F)F)CC2(C)C)C1CCN(c2ccncc2)CC1` (stereo not drawn) [CC_H-93, 3-[[[2-Chloro-6-(trifluoromethyl)-phenyl]sulfonyl]amino]-N,1,1-trimethyl-N-(1-pyridin-4-yl-piperidin-4-yl)-2,3-dihydro-indene-5-carboxylic acid amide] has an inhibition at 10 µM of 100%.
In the case of `CN(C(=O)NC1CCCc2ccc(C(=O)N(C)C3CCN(c4ccncc4)CC3)cc21)c1ccccc1Cl` (stereo not drawn) [CC_H-94, 8-[[(2-Chlorophenyl)-methyl-carbamoyl]amino]-N-methyl-N-(1-pyridin-4-yl-piperidin-4-yl)-5,6,7,8-tetrahydro-naphthalene-2-carboxylic acid amide], the inhibition at 10 µM is reported as 100%.
For `CN(C(=O)c1ccc2c(c1)C(NC(=O)C(C)(C)c1ccccc1Cl)CC2(C)C)C1CCN(c2ccncc2)CC1` (stereo not drawn) [CC_H-95, 3-[[2-(2-Chlorophenyl)-2-methyl-propanoyl]amino]-N,1,1-trimethyl-N-(1-pyridin-4-yl-piperidin-4-yl)-2,3-dihydro-indene-5-carboxylic acid amide], the inhibition at 10 µM was 100%.
In the case of `Cc1cc(N2CCC(N(C)C(=O)c3ccc4c(c3)C(NC(=O)c3cccc(Cl)c3Cl)CC4)CC2)cc(C)n1` (stereo not drawn) [CC_H-96, 3-[(2,3-Dichloro-benzoyl)amino]-N-[1-(2,6-dimethyl-pyridin-4-yl)-piperidin-4-yl]-N-methyl-2,3-dihydro-1H-indene-5-carboxylic acid amide], the inhibition at 10 µM is reported as 100%.
Compound `CN(C(=O)c1ccc2c(c1)C(NC(=O)C(C)(C)c1ccccc1Cl)CCO2)C1CCN(c2ccncc2)CC1` (stereo not drawn) [CC_H-97, 4-[[2-(2-Chlorophenyl)-2-methyl-propanoyl]amino]-N-methyl-N-(1-pyridin-4-yl-piperidin-4-yl)-3,4-dihydro-2H-chromene-6-carboxylic acid amide] has an inhibition at 10 µM of 92%.
`CN(C(=O)c1ccc2c(c1)C(NC(=O)C(C)(C)c1ccccc1Cl)CC2)C1CCN(c2ccc3cnccc3c2)CC1` (stereo not drawn) [CC_H-98, 3-[[2-(2-Chlorophenyl)-2-methyl-propanoyl]amino]-N-(1-isoquinolin-6-yl-piperidin-4-yl)-N-methyl-2,3-dihydro-1H-indene-5-carboxylic acid amide] was tested, and the inhibition at 10 µM was 92%.
Compound `Cc1cc(N2CCC(N(C)C(=O)c3ccc4c(c3)C(NC(=O)c3ccccc3Cl)CC4)CC2)cc(C)n1` (stereo not drawn) [CC_H-99, 3-[(2-Chloro-benzoyl)amino]-N-[1-(2,6-dimethyl-pyridin-4-yl)-piperidin-4-yl]-N-methyl-2,3-dihydro-1H-indene-5-carboxylic acid amide] has an inhibition at 10 µM of 100%.
`CN(C(=O)c1ccc2c(c1)CCC2NC(=O)C(C)(C)c1ccccc1Cl)C1CCN(c2ccncc2)CC1` (stereo not drawn) [CC_H-100, 1-[[2-(2-Chlorophenyl)-2-methyl-propanoyl]amino]-N-methyl-N-(1-pyridin-4-yl-piperidin-4-yl)-2,3-dihydro-1H-indene-5-carboxylic acid amide] showed an inhibition at 10 µM of 77%.
Compound `O=C(CCC1CCCC1)NC1CCc2ccc(C(=O)NCCC3CCN(c4ccncc4)CC3)cc21` (stereo not drawn) [CC_H-101, 3-(3-Cyclopentyl-propanoylamino)-N-[2-(1-pyridin-4-yl-piperidin-4-yl)-ethyl]-2,3-dihydro-1H-indene-5-carboxylic acid amide] has an inhibition at 10 µM of 100%.
With `CN(C(=O)c1ccc2c(c1)C(NC(=O)C(C)(C)c1ccccc1Cl)CCC2)C1CCN(c2ccncc2)CC1` (stereo not drawn) [CC_H-102, 8-[[2-(2-Chlorophenyl)-2-methyl-propanoyl]amino]-N-methyl-N-(1-pyridin-4-yl-piperidin-4-yl)-5,6,7,8-tetrahydro-naphthalene-2-carboxylic acid amide] the inhibition at 10 µM was 99%.
`CC(C)(C(=O)NC1CCc2ccc(C(=O)NCCC3CCN(c4ccncc4)CC3)cc21)c1ccccc1Cl` (stereo not drawn) [CC_H-103, 3-[[2-(2-Chlorophenyl)-2-methyl-propanoyl]amino]-N-[2-(1-pyridin-4-yl-piperidin-4-yl)-ethyl]-2,3-dihydro-1H-indene-5-carboxylic acid amide] was tested, and the inhibition at 10 µM was 89%.
Compound `CN(C(=O)NC1CCc2ccc(C(=O)N(C)C3CCN(c4ccc5cnccc5c4)CC3)cc21)c1ccccc1Cl` (stereo not drawn) [CC_H-104, 3-[[(2-Chlorophenyl)-methyl-carbamoyl]amino]-N-(1-isoquinolin-6-yl-piperidin-4-yl)-N-methyl-2,3-dihydro-1H-indene-5-carboxylic acid amide] has an inhibition at 10 µM of 100%.
`Cc1cccc(C)c1C(=O)NC1CCc2ccc(C(=O)NCCC3CCN(c4ccncc4)CC3)cc21` (stereo not drawn) [CC_H-105, 3-[(2,6-Dimethyl-benzoyl)amino]-N-[2-(1-pyridin-4-yl-piperidin-4-yl)-ethyl]-2,3-dihydro-1H-indene-5-carboxylic acid amide] was tested, and the inhibition at 10 µM was 90%.
`CN(C(=O)c1ccc2c(c1)C(N(C)C(=O)c1ccccc1Cl)CC2)C1CCN(c2ccncc2)CC1` (stereo not drawn) [CC_H-106, 3-[(2-Chloro-benzoyl)-methyl-amino]-N-methyl-N-(1-pyridin-4-yl-piperidin-4-yl)-2,3-dihydro-1H-indene-5-carboxylic acid amide] was tested, and the inhibition at 10 µM was 100%.
`Cc1cc(N2CCC(N(C)C(=O)c3ccc4c(c3)C(NC(=O)c3c(Cl)cccc3C(F)(F)F)CC4)CC2)cc(C)n1` (stereo not drawn) [CC_H-107, 3-[[2-Chloro-6-(trifluoromethyl)-benzoyl]amino]-N-[1-(2,6-dimethyl-pyridin-4-yl)-piperidin-4-yl]-N-methyl-2,3-dihydro-1H-indene-5-carboxylic acid amide] was tested, and the inhibition at 10 µM was 97%.
